Here are results for eight compounds from ChEMBL document CHEMBL1201862, “PubChem BioAssay data set” (2004).

In one experiment the target is Nonstructural protein 1 (Influenza A virus, UniProt Q194T2). It counts as functional, Influenza A virus (A/California/07/2009(H1N1)).
Experiment [1] deals with Disintegrin and metalloproteinase domain-containing protein 17 (Homo sapiens, UniProt P78536). In words: inhibition of ADAM17 substrate cleavage – biochemical, quenched FRET substrate, counter-screen for ADAM10 exosite inhibitor project, dose response (AID 743253). (In general: A counterscreen serves to expose hits that act by an unwanted route or on another target.)
Disintegrin and metalloproteinase domain-containing protein 17, sequence (P78536 whole entry, the tested form may be a part): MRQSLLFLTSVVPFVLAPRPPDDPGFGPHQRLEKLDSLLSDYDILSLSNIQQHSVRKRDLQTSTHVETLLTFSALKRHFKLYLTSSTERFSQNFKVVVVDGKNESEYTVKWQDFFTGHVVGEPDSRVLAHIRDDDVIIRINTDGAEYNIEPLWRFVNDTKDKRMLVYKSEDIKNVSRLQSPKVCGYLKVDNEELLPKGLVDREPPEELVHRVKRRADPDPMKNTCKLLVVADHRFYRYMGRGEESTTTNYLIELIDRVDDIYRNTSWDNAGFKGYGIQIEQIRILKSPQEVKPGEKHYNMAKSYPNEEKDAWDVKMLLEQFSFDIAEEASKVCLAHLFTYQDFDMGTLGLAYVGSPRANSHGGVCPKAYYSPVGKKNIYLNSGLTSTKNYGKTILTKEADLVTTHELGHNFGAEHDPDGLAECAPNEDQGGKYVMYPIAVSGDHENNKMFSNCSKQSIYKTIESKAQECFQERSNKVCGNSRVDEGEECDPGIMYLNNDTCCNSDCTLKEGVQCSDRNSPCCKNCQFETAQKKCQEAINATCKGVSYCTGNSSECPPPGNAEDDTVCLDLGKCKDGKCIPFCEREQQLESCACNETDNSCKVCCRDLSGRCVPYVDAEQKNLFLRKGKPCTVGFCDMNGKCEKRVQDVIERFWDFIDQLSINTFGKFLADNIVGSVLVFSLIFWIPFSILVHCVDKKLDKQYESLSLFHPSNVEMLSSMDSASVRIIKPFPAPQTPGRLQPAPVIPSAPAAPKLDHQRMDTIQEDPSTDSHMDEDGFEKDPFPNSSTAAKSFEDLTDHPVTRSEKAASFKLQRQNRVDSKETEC
Experiment [2] in a line: NIH-3T3 fibroblast cytotoxicity, dose response, cytotoxicity control, cell-based, fluorescence, Alamar Blue, secondary assay (AID 2327).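 Note: NIH-3T3 mouse fibroblasts cultured with fluconazole at 8 µg/mL.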 The format is functional.
Experiment [3] in a line: fluconazole-exposed Candida albicans growth modulators – fluorescence, retest, confirmation (AID 2467). It counts as functional, cell-based.
The target of experiment [4] is Matrix metalloproteinase-14 (Homo sapiens, UniProt P50281). The experiment in a line: Dose Response confirmation of uHTS hits for a small molecule inhibitors of MT1-MMP activation in a fluorescence assay set 2. It counts as functional.
The nature of experiment [5]: potency of ADAM10 substrate cleavage blockers – biochemical, QFRET, dose response (AID 743254).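 Note: ADAM10 enzyme with the DM2 quenched FRET peptide as substrate; EDANS fluorescence gain as the protease cuts the substrate; inhibitor potency against ADAM10 proteolytic activity.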
Experiment [6] has as its system Vero. In words: cells. It counts as functional. The following applies: Chlorocebus sabaeus.
The target in experiment [7] is Arf-GAP with SH3 domain, ANK repeat and PH domain-containing protein 1 (Homo sapiens, UniProt Q9ULH1). It counts as functional.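 Note: biochemical fluorescence polarization dose–response screen measuring inhibition of ASAP1; ASAP1 GAP domain stimulating GTP hydrolysis by truncated human ARF1.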
Arf-GAP with SH3 domain, ANK repeat and PH domain-containing protein 1, sequence (Q9ULH1 whole entry, the tested form may be a part): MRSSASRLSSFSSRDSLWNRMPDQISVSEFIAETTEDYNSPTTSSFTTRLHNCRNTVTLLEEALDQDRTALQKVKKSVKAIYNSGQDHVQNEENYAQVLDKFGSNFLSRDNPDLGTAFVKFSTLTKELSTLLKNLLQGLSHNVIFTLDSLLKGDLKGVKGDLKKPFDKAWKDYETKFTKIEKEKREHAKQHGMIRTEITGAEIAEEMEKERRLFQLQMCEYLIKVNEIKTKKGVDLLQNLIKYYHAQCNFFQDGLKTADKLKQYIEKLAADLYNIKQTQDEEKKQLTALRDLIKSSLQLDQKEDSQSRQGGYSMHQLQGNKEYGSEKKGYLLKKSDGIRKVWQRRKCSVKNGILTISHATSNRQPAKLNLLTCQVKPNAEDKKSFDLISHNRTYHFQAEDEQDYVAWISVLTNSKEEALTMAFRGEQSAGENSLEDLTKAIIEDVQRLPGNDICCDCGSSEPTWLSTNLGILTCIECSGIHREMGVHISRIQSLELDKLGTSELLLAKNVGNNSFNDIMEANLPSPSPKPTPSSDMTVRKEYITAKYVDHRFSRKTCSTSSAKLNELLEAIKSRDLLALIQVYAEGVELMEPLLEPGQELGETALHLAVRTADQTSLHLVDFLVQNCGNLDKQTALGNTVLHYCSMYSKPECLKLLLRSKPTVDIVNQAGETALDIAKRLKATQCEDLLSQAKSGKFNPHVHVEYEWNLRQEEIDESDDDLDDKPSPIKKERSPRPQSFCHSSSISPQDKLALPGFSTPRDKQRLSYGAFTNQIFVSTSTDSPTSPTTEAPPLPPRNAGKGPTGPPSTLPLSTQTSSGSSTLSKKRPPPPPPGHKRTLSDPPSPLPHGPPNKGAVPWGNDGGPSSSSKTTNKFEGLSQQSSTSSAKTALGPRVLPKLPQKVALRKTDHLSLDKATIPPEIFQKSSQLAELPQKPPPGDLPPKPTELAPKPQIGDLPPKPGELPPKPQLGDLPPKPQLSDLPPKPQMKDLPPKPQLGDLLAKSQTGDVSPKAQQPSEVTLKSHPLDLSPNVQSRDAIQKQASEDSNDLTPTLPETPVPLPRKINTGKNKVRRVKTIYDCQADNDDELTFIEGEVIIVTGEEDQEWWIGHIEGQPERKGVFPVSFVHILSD
The nature of experiment [8]: cells. It counts as functional, cell-based.
In experiment [9] the target is T1, Long-chain-fatty-acid--AMP ligase FadD28 (Mycobacterium tuberculosis, UniProt P9WQ59).
T1 sequence (P9WQ59 whole entry): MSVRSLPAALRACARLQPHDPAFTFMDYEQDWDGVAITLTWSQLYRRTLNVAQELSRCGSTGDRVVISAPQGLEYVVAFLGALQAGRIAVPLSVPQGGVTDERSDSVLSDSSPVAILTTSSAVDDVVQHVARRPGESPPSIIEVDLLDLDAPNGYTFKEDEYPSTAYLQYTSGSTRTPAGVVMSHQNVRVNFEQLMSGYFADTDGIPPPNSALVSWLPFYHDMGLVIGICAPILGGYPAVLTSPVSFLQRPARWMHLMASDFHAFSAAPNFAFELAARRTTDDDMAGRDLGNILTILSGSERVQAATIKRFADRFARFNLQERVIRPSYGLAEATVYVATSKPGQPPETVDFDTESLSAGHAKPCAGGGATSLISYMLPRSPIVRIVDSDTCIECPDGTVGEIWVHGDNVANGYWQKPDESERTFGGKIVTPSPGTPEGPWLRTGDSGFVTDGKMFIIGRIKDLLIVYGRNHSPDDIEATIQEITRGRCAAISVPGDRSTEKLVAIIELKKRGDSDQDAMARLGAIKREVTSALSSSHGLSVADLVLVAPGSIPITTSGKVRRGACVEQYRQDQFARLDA
In words: Fluorescence polarization aasay to screen for inhibitors that compete for the binding of FadD28 to a bisubstrate Measured in Biochemical System Using Plate Reader - 2147-01_Inhibitor_Dose_CherryPick_Activity. It counts as functional, Mycobacterium tuberculosis H37Rv. Background: In fluorescence polarisation assays a small probe gives low polarisation when free and higher when bound to something large.

Experiment [10] addresses Nuclear receptor subfamily 0 group B member 1 (Homo sapiens, UniProt P51843). It counts as functional, cell-based.
For experiment [11], the system named is Vero. In words: viability loss in Vero cells – cell-based, plate reader, cherry-pick samples, cytotoxicity control, dose response (AID 687020). It counts as functional. The following applies: Chlorocebus sabaeus.
In experiment [12] the target is T2, Trace amine-associated receptor 1 (Homo sapiens, UniProt Q96RJ0). In words: Counterscreen for agonists of the human trace amine associated receptor 1 (hTAAR1): Fluorescence-based cell-based high throughput dose response assay to identify hTAAR1 agonist that also desensitize TAAR1 receptor response. It counts as functional.
T2 sequence (Q96RJ0 whole entry): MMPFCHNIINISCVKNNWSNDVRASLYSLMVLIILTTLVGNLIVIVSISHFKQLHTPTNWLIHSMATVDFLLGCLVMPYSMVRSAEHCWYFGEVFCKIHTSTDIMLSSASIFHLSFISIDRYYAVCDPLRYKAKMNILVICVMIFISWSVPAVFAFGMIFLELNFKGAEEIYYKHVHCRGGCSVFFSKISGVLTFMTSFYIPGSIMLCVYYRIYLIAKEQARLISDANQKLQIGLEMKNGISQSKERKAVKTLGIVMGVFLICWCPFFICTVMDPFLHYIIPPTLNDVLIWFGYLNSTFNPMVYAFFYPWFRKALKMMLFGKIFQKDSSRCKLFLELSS
Experiment [13] concerns the target T2, Trace amine-associated receptor 1. The experiment in a line: Fluorescence-based cell-based high throughput dose response assay to identify agonists of the human trace amine associated receptor 1 (TAAR1). It counts as functional.
Experiment [14] is described as follows: cells. The format is functional, cell-based. The source holds these as a separate data set.
Experiment [15] in a line: cells. It counts as functional, cell-based. The source holds these as a separate data set.
Experiment [16] concerns the target T3, Scavenger receptor class B member 1 (Mus musculus, UniProt Q61009).
T3 sequence (Q61009 whole entry): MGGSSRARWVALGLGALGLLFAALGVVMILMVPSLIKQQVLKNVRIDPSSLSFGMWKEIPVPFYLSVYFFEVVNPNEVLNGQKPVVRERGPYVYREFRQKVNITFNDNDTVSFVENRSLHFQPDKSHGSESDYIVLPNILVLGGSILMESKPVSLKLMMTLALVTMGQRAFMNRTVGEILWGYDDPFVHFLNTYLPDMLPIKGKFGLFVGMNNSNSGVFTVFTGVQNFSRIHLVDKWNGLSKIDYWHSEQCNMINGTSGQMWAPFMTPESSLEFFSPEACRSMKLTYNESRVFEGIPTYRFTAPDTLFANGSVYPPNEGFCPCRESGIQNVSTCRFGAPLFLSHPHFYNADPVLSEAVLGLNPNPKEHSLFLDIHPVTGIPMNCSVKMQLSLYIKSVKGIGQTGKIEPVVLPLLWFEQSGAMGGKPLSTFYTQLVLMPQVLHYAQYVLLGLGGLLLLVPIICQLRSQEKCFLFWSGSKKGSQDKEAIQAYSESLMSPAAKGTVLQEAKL
The experiment in a line: blockers of DiI-HDL lipid transfer via SR-BI – cell-based, ldlA[mSR-BI] CHO, DiI fluorescence, dry powder, set 10, dose response (AID 624029). The format is functional.

The target of experiment [17] is T3, Scavenger receptor class B member 1. In words: mouse SR-BI DiI-HDL transfer blockers – ldlA[mSR-BI] CHO cells, fluorescence plate reader, dry powder, set 9, dose response (AID 623880). The format is functional, cell-based.
Experiment [18] concerns the target SWI/SNF-related matrix-associated actin-dependent regulator of chromatin subfamily A member 2 (Homo sapiens, UniProt P51531). In words: Luminescence-based cell-based high throughput dose response assay to identify activators of the function of SWI/SNF related, matrix associated, actin dependent regulator of chromatin, subfamily a, member 2 (SMARCA2, BRM). The format is functional.

A short description of experiment [19]: Counterscreen for activators of the function of SWI/SNF related, matrix associated, actin dependent regulator of chromatin, subfamily a, member 2 (SMARCA2, BRM): Luminescence-based cell-based high throughput dose response assay to identify non-selective compounds using the VP16 reporter assay. The format is functional.
The test system of the next experiment is HEK293. In words: viability loss in HEK293T cells – cell-based, ATP luminescence, cherry-pick samples, cytotoxicity control, dose response (AID 687005).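 Note: cells exposed to compound for 48 hours.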 The format is functional. The following applies: Homo sapiens.
Experiment [20] can be described thus: HEK293 Cytotoxicity Assay Measured in Cell-Based System Using Plate Reader - 7071-01_Inhibitor_Dose_CherryPick_Activity_Set2. The format is functional.

Structures are written as SMILES. Calls of active or inactive are those of the source.

What is called IC50 is the concentration that inhibits the measured activity by half. In general, EC50 refers to the concentration giving half of the maximal effect. What is called CC50 is the concentration giving 50% cytotoxicity. Usually AC50 stands for the concentration at which the activity in the assay is half-maximal.

SWI/SNF-related matrix-associated actin-dependent regulator of chromatin subfamily A member 2, sequence (P51531 whole entry): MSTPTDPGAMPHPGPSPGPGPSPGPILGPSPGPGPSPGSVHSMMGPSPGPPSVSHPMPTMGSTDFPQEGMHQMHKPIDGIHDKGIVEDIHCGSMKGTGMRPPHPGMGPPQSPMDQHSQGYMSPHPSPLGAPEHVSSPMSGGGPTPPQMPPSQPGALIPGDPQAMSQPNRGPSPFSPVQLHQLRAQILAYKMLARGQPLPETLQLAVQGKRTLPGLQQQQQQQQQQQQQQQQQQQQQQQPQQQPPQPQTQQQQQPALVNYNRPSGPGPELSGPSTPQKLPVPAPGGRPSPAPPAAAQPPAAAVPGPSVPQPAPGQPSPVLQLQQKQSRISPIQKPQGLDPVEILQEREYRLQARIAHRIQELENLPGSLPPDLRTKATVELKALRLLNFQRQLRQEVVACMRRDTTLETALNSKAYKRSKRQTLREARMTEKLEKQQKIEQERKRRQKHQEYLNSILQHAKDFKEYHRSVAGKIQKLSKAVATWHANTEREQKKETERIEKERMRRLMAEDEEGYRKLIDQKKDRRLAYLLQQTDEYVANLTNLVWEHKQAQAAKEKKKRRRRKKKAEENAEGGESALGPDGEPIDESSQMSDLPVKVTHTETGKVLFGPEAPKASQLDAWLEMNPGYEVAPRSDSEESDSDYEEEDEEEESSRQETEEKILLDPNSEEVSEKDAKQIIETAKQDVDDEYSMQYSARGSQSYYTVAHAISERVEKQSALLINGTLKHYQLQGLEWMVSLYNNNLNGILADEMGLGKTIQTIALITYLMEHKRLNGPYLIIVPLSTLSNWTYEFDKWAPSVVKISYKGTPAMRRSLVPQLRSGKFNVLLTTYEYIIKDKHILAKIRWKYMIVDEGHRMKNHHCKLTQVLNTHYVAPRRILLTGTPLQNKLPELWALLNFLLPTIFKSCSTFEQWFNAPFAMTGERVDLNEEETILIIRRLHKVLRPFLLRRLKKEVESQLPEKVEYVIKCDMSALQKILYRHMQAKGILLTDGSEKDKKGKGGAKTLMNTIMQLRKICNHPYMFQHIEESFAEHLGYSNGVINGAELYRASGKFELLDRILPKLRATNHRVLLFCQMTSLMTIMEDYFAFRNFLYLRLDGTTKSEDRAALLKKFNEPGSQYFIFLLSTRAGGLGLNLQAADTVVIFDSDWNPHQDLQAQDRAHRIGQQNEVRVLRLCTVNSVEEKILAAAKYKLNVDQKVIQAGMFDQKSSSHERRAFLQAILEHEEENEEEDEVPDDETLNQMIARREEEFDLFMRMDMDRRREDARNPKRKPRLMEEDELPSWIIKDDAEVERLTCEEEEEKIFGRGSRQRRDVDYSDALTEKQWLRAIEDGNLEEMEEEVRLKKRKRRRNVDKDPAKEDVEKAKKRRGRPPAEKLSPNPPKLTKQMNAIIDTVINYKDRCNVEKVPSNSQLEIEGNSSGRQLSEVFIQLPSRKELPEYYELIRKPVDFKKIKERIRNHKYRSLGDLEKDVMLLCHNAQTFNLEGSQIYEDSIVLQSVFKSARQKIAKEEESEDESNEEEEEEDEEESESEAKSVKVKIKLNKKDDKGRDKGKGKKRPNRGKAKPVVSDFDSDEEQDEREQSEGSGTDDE
Nonstructural protein 1, sequence (Q194T2 whole entry, the tested form may be a part): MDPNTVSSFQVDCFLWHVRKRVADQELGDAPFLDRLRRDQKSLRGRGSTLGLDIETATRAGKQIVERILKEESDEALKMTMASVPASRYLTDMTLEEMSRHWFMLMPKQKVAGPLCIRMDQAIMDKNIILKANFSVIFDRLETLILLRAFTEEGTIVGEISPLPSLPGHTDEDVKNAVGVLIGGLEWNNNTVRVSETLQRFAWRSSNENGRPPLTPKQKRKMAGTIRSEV
Nuclear receptor subfamily 0 group B member 1, sequence (P51843 whole entry): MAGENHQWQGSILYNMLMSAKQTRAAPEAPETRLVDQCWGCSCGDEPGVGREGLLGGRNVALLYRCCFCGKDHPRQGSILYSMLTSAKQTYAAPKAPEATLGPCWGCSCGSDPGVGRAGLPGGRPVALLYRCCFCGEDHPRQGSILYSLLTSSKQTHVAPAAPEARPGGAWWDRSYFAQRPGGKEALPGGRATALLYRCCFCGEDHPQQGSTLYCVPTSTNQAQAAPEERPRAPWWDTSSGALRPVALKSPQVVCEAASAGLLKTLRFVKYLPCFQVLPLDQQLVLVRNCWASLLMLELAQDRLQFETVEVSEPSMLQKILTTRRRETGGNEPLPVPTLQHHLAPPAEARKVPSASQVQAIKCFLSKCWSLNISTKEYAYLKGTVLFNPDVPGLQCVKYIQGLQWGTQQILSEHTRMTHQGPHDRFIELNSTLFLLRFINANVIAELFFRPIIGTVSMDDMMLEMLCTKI

On to `Nc1nc(-c2ccccc2)c(N=Nc2ccccc2Cl)s1`, for which the IC50 on Nonstructural protein 1 was 9.93 µM (active); in [1], > 69.5 µM (inactive); in [4], 28 µM (inactive); in [5], 8.65 µM (active). Moreover, the figures for the EC50 in experiment [2] and in experiment [3] were > 160 µM (inactive) and 4.78 µM (active), respectively.
Take `COCCn1cnc2c(c1=O)c1nc3ccccc3nc1n2/N=C/c1ccc(OC)c(OC)c1`: the half-maximal cytotoxic concentration (CC50) with Vero [6] is 23.5 µM (active). Further, in experiment [7], the IC50 is 41.7 µM (inactive).
Turning to `CCc1cccc2c(C(=O)CN3C(=O)N(C)C4(CCCCC4)C3=O)c[nH]c12`, the IC50 (in the experiment “cells [8]”; in experiment [10]) was > 67.5 µM (inactive) throughout. For the same compound, in experiment [9], the AC50 is > 100 µM (inactive).
For the compound `CCNS(=O)(=O)c1ccc(Br)c(C(=O)OC(C)C(=O)NCC2CCCCC2)c1` (configuration not stated), the AC50 in the experiment on Vero [11] was 31.7 µM (active).
For the compound `Cc1ccc2cc(CNCCc3ccccc3C)c(O)nc2c1`, the IC50 in experiment [12] is 3.54 µM (active); in “cells [14]”, > 29.9 µM (inactive). Further, the EC50 in experiment [13] is 2.34 µM (active); in the experiment “cells [15]”, > 29.9 µM (inactive).
For `C[C@@H]1CN([C@H](C)CO)C(=O)c2cc(NC(=O)Cc3cn(C)c4ccccc34)ccc2O[C@H]1CN(C)S(=O)(=O)c1ccc(Cl)cc1`, the AC50 is 0.0313 µM (active) in experiment [16] and 0.0155 µM (active) in experiment [17].
`Cc1ccc2c(c1)cc(CN(Cc1ccco1)C(=O)N1CCOCC1)c1nnnn12`: the EC50 in experiment [18] and in [19] was > 91.2 µM (inactive) each time.
As for `CCC(=O)N1[C@@H]2Cn3c(cccc3=O)[C@H]1[C@@H](C(=O)NCc1ccccc1)[C@@H]2CO`, the AC50 (with HEK293; in experiment [20]) was 30.2 µM (active) throughout.
